Assay results reported in US20260209214A1, “LSD1 MODULATORS” (RECURSION PHARMACEUTICALS, INC., priority 2022, published 2026).
Read-outs that look alike come from different tables or passages of the source.

Biological target: Recombinant human LSD1 (Homo sapiens, UniProt O60341)
Assay: LSD1 inhibition assay (HTRF LSD1 Histone H3K4 mono-demethylation assay, me1->me0)
Type: biochemical
Settings: 20 nM recombinant human LSD1, 95 nM H3K4(me1) biotinylated peptide, 15 min preincubation, 60 min at 25° C.
How it was run: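 Recombinant human LSD1 (20 nM) pre-incubated 15 min with 10 semi-log compound doses, then 95 nM biotinylated H3K4me1 peptide for 60 min at 25 °C in pH 8.5 Tris/NaCl buffer with 10 μM FAD, 1 mM DTT. HTRF me0-antibody read after 90 min; IC50 from 4-parameter fit.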

[1] = read-out: LSD1 inhibition IC50 (nM range)

For CN1CC2(C1)CN(Cc1cccc(-c3ccc(C#N)c(F)c3)c1Cl)C2 [Example 214, CN1CC2(C1)CN(Cc3cccc(c3Cl)c4ccc(C#N)c(F)c4)C2], the IC50 (LSD1 inhibition IC50 (nM range)) was > 1000 nM.

CN[C@H]1CCCN(Cc2cccc(-c3ccc(C#N)c(F)c3)c2C2CC2)CC1 [Example 215, 2'-cyclopropyl-3-fluoro-3'-{[(4S)-4-(methylamino)azepan-1-yl]methyl}-[1,1'-biphenyl]-4-carbonitrile] showed an IC50 [1] of 25 to 100 nM.

In the case of COCC1CCN(c2ccc(CN3C[C@]4(N)CC[C@H]3C4)cc2-c2ccc(C#N)c(F)c2)CC1 [Example 216, 5'-{[(1S,4S)-4-amino-2-azabicyclo[2.2.1]heptan-2-yl]methyl}-3-fluoro-2'-[4-(methoxymethyl)piperidin-1-yl]-[1,1'-biphenyl]-4-carbonitrile], the IC50 [1] is reported as < 10 nM.

Work on N#Cc1ccc(-c2cc(CN3C[C@]4(N)CC[C@H]3C4)ccc2N2CCC3(CCCO3)CC2)cc1F [Example 217, 5'-{[(1S,4S)-4-amino-2-azabicyclo[2.2.1]heptan-2-yl]methyl}-3-fluoro-2'-{1-oxa-8-azaspiro[4.5]decan-8-yl}-[1,1'-biphenyl]-4-carbonitrile] yielded an IC50 [1] of 10 to 25 nM.

Work on N#Cc1ccc(-c2cccc(CN3C[C@@]4(N)CC[C@@H]3C4)c2C2CC2)cc1F [Example 225, 3'-{[(1R,4R)-4-amino-2-azabicyclo[2.2.1]heptan-2-yl]methyl}-2'-cyclopropyl-3-fluoro-[1,1'-biphenyl]-4-carbonitrile] yielded an IC50 [1] of 100 to 1000 nM.

Cc1cc(CNCC2CCN(C)C2)c(Cl)c(-c2ccc(C#N)c(F)c2)c1 (stereo not shown) [Example 226, 2'-chloro-3-fluoro-5'-methyl-3'-({[(1-methylpyrrolidin-3-yl)methyl]amino}methyl)-[1,1'-biphenyl]-4-carbonitrile] was tested, and the IC50 [1] was 100 to 1000 nM.

Compound N#Cc1ccc(-c2cccc(CN3CC4CCC3C(N)C4)c2C2CC2)cc1F (stereo not shown) [Example 227, 3'-({6-amino-2-azabicyclo[2.2.2]octan-2-yl}methyl)-2'-cyclopropyl-3-fluoro-[1,1'-biphenyl]-4-carbonitrile] has an IC50 [1] of 25 to 100 nM.

Work on CN[C@@H]1CCN(Cc2cccc(-c3ccc(C#N)c(F)c3)c2C2CC2)C1 [Example 228, 2'-cyclopropyl-3-fluoro-3'-{[(3R)-3-(methylamino)pyrrolidin-1-yl]-methyl}-[1,1'-biphenyl]-4-carbonitrile] yielded an IC50 [1] of 100 to 1000 nM.

Cn1nc2ccc(-c3ccc(CN4C[C@@]5(N)CC[C@@H]4C5)cc3-c3ccc(C#N)c(F)c3)cc2c1Cl [Example 233, 5'-{[(1R,4R)-4-amino-2-azabicyclo[2.2.1]heptan-2-yl]methyl}-2'-(3-chloro-2-methyl-2H-indazol-5-yl)-3-fluoro-[1,1'-biphenyl]-4-carbonitrile] was tested, and the IC50 [1] was 10 to 25 nM.

With N#Cc1ccc(-c2cc(CN3C[C@]4(N)CC[C@H]3C4)ccc2N2CCC3(CCOC3)CC2)cc1F [Example 234, 5'-{[(1S,4S)-4-amino-2-azabicyclo[2.2.1]heptan-2-yl]methyl}-3-fluoro-2'-{2-oxa-8-azaspiro[4.5]decan-8-yl}-[1,1'-biphenyl]-4-carbonitrile] the IC50 [1] was < 10 nM.

N#Cc1ccc(-c2cccc(Cn3cc4c(n3)CNCC4)c2-c2cncs2)cc1F [Example 236, 3-fluoro-3'-({2H,4H,5H,6H,7H-pyrazolo[3,4-c]pyridin-2-yl}methyl)-2'-(1,3-thiazol-5-yl)-[1,1'-biphenyl]-4-carbonitrile] gave an IC50 [1] of 25 to 100 nM.

N#Cc1ccc(-c2cccc(CN3C[C@@H]4C[C@@H](N)[C@H]3C4)c2-c2cncs2)cc1F [Example 237, 3'-{[(1R,4R,6R)-6-amino-2-azabicyclo[2.2.1]heptan-2-yl]methyl}-3-fluoro-2'-(1,3-thiazol-5-yl)-[1,1'-biphenyl]-4-carbonitrile] showed an IC50 [1] of 10 to 25 nM.

N#Cc1ccc(-c2cccc(CN3CC4CNCC3C4)c2Cl)cc1F (stereo not shown) [Example 238, 2'-chloro-3'-({3,6-diazabicyclo[3.2.1]octan-6-yl}methyl)-3-fluoro-[1,1'-biphenyl]-4-carbonitrile] gave an IC50 [1] of 100 to 1000 nM.

For CN1CCC12CCN(Cc1c(F)ccc(-c3ccc(C#N)c(F)c3)c1N1CCC1)C2 (stereo not shown) [Example 239, 2'-(azetidin-1-yl)-3,4'-difluoro-3'-({1-methyl-1,6-diazaspiro[3.4]octan-6-yl}methyl)-[1,1'-biphenyl]-4-carbonitrile], the IC50 [1] was 25 to 100 nM.

C[C@@]1(N)CCN(Cc2cccc(-c3ccc(C#N)c(F)c3)c2-c2ccns2)C1 [Example 242, 3'-{[(3R)-3-amino-3-methylpyrrolidin-1-yl]methyl}-3-fluoro-2'-(1,2-thiazol-5-yl)-[1,1'-biphenyl]-4-carbonitrile] was tested, and the IC50 [1] was 10 to 25 nM.

CC(C)C1(O)CCN(c2ccc(CN3C[C@]4(N)CC[C@H]3C4)cc2-c2ccc(C#N)c(F)c2)CC1 [Example 262, 5'-{[(1S,4S)-4-amino-2-azabicyclo[2.2.1]heptan-2-yl]methyl}-3-fluoro-2'-[4-hydroxy-4-(propan-2-yl)piperidin-1-yl]-[1,1'-biphenyl]-4-carbonitrile] was tested, and the IC50 [1] was 10 to 25 nM.

With Cn1nc2ccc(-c3ccc(CN4C[C@]5(N)CC[C@H]4C5)cc3-c3ccc(C#N)c(F)c3)cc2c1Cl [Example 263, 5'-{[(1S,4S)-4-amino-2-azabicyclo[2.2.1]heptan-2-yl]methyl}-2'-(3-chloro-2-methyl-2H-indazol-5-yl)-3-fluoro-[1,1'-biphenyl]-4-carbonitrile] the IC50 [1] was < 10 nM.

Cn1cc2cc(-c3ccc(CN4C[C@]5(N)CC[C@H]4C5)cc3-c3ccc(C#N)c(F)c3)ccc2n1 [Example 264, 5'-{[(1S,4S)-4-amino-2-azabicyclo[2.2.1]heptan-2-yl]methyl}-3-fluoro-2'-(2-methyl-2H-indazol-5-yl)-[1,1'-biphenyl]-4-carbonitrile] showed an IC50 [1] of 10 to 25 nM.

N#Cc1ccc(-c2cccc(CN3C4CCC3CNC4)c2C2CC2)cc1F [Example 265, 2'-cyclopropyl-3'-({3,8-diazabicyclo[3.2.1]octan-8-yl}methyl)-3-fluoro-[1,1'-biphenyl]-4-carbonitrile] was tested, and the IC50 [1] was 25 to 100 nM.

In the case of N#Cc1ccc(-c2cccc(CN3CCC4(CCCN4)C3)c2C2CC2)cc1F (stereo not shown) [Example 266, Fc1cc(ccc1C#N)c2cccc(CN3CCC4(CCCN4)C3)c2C5CC5], the IC50 [1] is reported as 100 to 1000 nM.

Compound N#Cc1ccc(-c2cccc(CN3CCCC4(CCN4)C3)c2C2CC2)cc1F (stereo not shown) [Example 267, 2'-cyclopropyl-3'-({1,6-diazaspiro[3.5]nonan-6-yl}methyl)-3-fluoro-[1,1'-biphenyl]-4-carbonitrile] has an IC50 [1] of 100 to 1000 nM.

N#Cc1ccc(-c2cccc(CN3CC[C@@H]4NCCC[C@@H]43)c2C2CC2)cc1F [Example 271, Fc1cc(ccc1C#N)c2cccc(CN3CC[C@@H]4NCCC[C@H]34)c2C5CC5] was tested, and the IC50 [1] was 100 to 1000 nM.

With CN[C@H]1CCCCN(Cc2cccc(-c3ccc(C#N)c(F)c3)c2C2CC2)C1 [Example 272, 2'-cyclopropyl-3-fluoro-3'-{[(3S)-(methylamino)azepan-1-yl]methyl}-[1,1'-biphenyl]-4-carbonitrile] the IC50 [1] was 100 to 1000 nM.

N#Cc1ccc(-c2cccc(CN3CC[C@@H]4NCC[C@@H]43)c2C2CC2)cc1F [Example 273, 3'-{[(3aS,6aS)-octahydropyrrolo[3,2-b]pyrrol-1-yl]methyl}-2'-cyclopropyl-3-fluoro-[1,1'-biphenyl]-4-carbonitrile] showed an IC50 [1] of 25 to 100 nM.

N#Cc1ccc(-c2cccc(CN3C4CNCC3C4)c2C2CC2)cc1F [Example 274, 2'-cyclopropyl-3'-({3,6-diazabicyclo[3.1.1]heptan-6-yl}methyl)-3-fluoro-[1,1'-biphenyl]-4-carbonitrile] showed an IC50 [1] of 100 to 1000 nM.
